Test results: patent US7214396B2, “Confectionery product containing functional ingredients and method of making and using” (Nestec S.A., priority 2000, dated 2007)

How the values were obtained:
[1] = cited from earlier work; for solubility: water at 37° C.
[2] = cooling effect: instant fall of temperature when powder is added to water; type: physicochemical; details: 150 g of powder added to 50 ml of water at 37° C.
Protocol: A suitable monosaccharide polyol is preferably selected from the group consisting of xylitol, erythritol, sorbitol or a combination thereof. […] (Instant fall of temperature when 150 g of powder are added to 50 ml of water at 37° C.).

measured cooling effect (instant fall of temperature) [2] | SMILES | water solubility compared with other polyols ([1]; anhydride crystals) | solubility [1]
 | OC[C@@H](O)[C@@H](O)CO [Erythritol] | less water soluble | 
 | OC[C@@H](O)[C@@H](O[C@H]1O[C@H](CO)[C@@H](O)[C@H](O)[C@H]1O)[C@H](O)[C@@H](O)CO [maltitol, reference compound] |  | less than 205 g/100 g
about −22 °C | OC[C@@H](O)[C@@H](O)[C@H](O)[C@@H](O)CO [sorbitol] |  | 330–340 g/100 g
 | OC[C@H]1O[C@@](CO)(O[C@H]2O[C@H](CO)[C@@H](O)[C@H](O)[C@H]2O)[C@@H](O)[C@@H]1O [sucrose, reference compound] |  | under 230 g/100 g
about −20 °C | OC[C@@H](O)[C@H](O)[C@@H](O)CO [xylitol] |  | 250–260 g/100 g
